Reference: US10406207B2, “Peptide conjugates of GLP-1 receptor agonists and gastrin and their use” (priority 2010, dated 2019)
Square brackets hold non-standard residues; d marks the D form. Peptide text beside a SMILES is read from it. AEEA = NCCOCCOCC(=O)O

How the values were obtained:
[1] = target: T1, human GLP-1 R (Homo sapiens, UniProt P43220); test: Human GLP-1 receptor efficacy assay (cAMP induction, FlashPlate); format: cell-based; conditions: Table 2; read-out: hGLP-1 R EC50
T1 construct: expressed in transfected cells
T1 sequence (P43220 24-463): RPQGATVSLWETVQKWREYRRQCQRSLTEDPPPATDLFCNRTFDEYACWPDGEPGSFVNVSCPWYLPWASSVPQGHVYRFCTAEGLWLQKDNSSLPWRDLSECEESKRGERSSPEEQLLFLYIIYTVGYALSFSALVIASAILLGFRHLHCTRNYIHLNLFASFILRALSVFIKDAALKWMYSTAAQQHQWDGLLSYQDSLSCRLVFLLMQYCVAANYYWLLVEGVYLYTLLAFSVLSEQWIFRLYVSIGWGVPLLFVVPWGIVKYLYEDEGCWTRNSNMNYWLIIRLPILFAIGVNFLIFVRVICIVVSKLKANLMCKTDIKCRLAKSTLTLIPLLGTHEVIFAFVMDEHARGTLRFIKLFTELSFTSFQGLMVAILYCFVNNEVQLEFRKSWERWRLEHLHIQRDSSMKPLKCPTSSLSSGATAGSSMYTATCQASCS
Method: On the day of analysis, growth medium was removed and the cells were washed once with 200 μl Tyrode buffer [Tyrode's Salts (9.6 g/l), 10 mM HEPES, pH 7.4]. […] The reaction was stopped by addition of 25 μl 0.5 M HCl and incubated on ice for 60 min.

[2] = target: T2, human CCK-B R (Homo sapiens, UniProt P32239); test: Human CCK-B receptor efficacy assay (AlphaScreen SureFire p-ERK); format: cell-based; conditions: Table 2; read-out: hCCK-B R EC50
T2 construct: expressed in transfected cells
T2 sequence (P32239 1-447): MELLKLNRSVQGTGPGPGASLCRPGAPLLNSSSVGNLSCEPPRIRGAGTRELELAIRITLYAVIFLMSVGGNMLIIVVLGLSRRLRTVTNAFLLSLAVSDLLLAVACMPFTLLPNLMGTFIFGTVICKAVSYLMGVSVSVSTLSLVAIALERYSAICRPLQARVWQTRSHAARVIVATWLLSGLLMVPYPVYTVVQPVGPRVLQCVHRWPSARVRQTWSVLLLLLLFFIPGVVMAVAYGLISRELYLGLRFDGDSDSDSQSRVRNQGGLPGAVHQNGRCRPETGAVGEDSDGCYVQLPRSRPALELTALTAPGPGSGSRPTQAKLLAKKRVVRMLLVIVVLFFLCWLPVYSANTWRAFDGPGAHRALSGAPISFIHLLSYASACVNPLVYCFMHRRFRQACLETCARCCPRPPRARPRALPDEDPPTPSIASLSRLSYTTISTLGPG
Method: CCK-B Receptor (CCK-B R) Efficacy Assay:
In vitro effects of peptide conjugates of the invention were estimated by measuring p-ERK (using the AlphaScreen™ SureFire p-ERK assay) in HEK293 cells stably expressing the human and mouse CCK-B R (high-affinity Gastrin receptor), respectively. The Gastrin receptor efficacy assays (AlphaScreen™ SureFire p-ERK assay) were performed as follows:
The CCK-B R expressing cells in question were seeded at 20,000 cells/well in 100 μl growth medium [DMEM, 10% FCS, Penicillin (100 IU/ml), Streptomycin (100 μg/ml)] in a 96-well plate coated with poly-D-lysine. The cells were incubated in an incubator (37° C., 5% 002) for two days.
The growth medium was changed to 80 μl of serum-free medium [DMEM, Penicillin (100 IU/ml), Streptomycin (100 μg/ml)] per well, and incubation of the cells was continued for 19 hours in the incubator (37° C., 5% CO2).
After 19 hours, 20 μl of serum-free medium containing one of 5 different concentrations of peptide conjugate was added (performed in triplicate for each concentration), and the cells were incubated for 5 min. at room temperature. • 2. The stimulation medium was discarded by quickly turning the plate upside down, and 60 μl 1× lysis buffer (from the SureFire assay kit) was added per well. • 3. The plate was shaken on a plate-shaker for 5 min and then placed on ice. • 4. SureFire P-ERK assay: 4 μl of each supernatant was transferred to a 384 well proxiplate (Perkin Elmer). • 5. 4 μl of each of the two control lysates (unstimulated and stimulated) were added to the proxiplate in duplicate. • 6. […] 7 μl of the latter reaction buffer+activation buffer+beads per well were added in the proxiplate, the mix being resuspended carefully before addition to the wells. • 7. The plate was incubated for 2 hours in a dark box in a 22° C. incubator. • 8. The plate was analyzed on an Envision™ light-emission plate reader (Perkin-Elmer) using the appropriate reading program (Perkin-Elmer).

Row | SMILES | EC50 [1] [nM] | EC50 [2] [nM]
1 | CC[C@H](C)[C@H](NC(=O)[C@H](Cc1ccccc1)NC(=O)[C@H](CC(C)C)NC(=O)[C@H](CCCNC(=N)N)NC(=O)[C@@H](NC(=O)[C@H](C)NC(=O)[C@H](CCC(=O)O)NC(=O)[C@H](CCC(=O)O)NC(=O)[C@H](CCC(=O)O)NC(=O)[C@H](CC(C)C)NC(=O)[C@H](Cc1ccc(O)cc1)NC(=O)[C@H](CCCCN)NC(=O)[C@H](CO)NC(=O)[C@H](CC(C)C)NC(=O)[C@H](CC(=O)O)NC(=O)[C@H](CO)NC(=O)[C@@H](NC(=O)[C@H](Cc1ccccc1)NC(=O)[C@@H](NC(=O)CNC(=O)[C@H](CCC(=O)O)NC(=O)CNC(=O)[C@@H](N)Cc1c[nH]cn1)[C@@H](C)O)[C@@H](C)O)C(C)C)C(=O)N[C@@H](CCC(=O)O)C(=O)N[C@@H](Cc1ccccc1)C(=O)N[C@@H](CC(C)C)C(=O)N[C@@H](CCCNC(=N)N)C(=O)NCCOCCOCC(=O)N[C@@H](Cc1ccc(O)cc1)C(=O)NCC(=O)N[C@@H](Cc1c[nH]c2ccccc12)C(=O)N[C@@H](CC(C)C)C(=O)N[C@@H](CC(=O)O)C(=O)N[C@@H](Cc1ccccc1)C(N)=O [Compound 91, [Arg27,Leu14,Phe25,Tyr13]Exendin-4(1-27)-Peg3-[Leu4]Gastrin6] (H-HGEGTFTSDLSKYLEEEAVRLFIEFLR[AEEA]YGWLDF-NH2) | 0.068 | 18
2 | CC[C@H](C)[C@H](NC(=O)[C@H](Cc1ccccc1)NC(=O)[C@H](CC(C)C)NC(=O)[C@H](CCCNC(=N)N)NC(=O)[C@@H](NC(=O)[C@H](C)NC(=O)[C@H](CCC(=O)O)NC(=O)[C@H](CCC(=O)O)NC(=O)[C@H](CCC(=O)O)NC(=O)[C@H](CC(C)C)NC(=O)[C@H](Cc1ccc(O)cc1)NC(=O)[C@H](CCCCN)NC(=O)[C@H](CO)NC(=O)[C@H](CC(C)C)NC(=O)[C@H](CCC(=O)O)NC(=O)[C@H](CO)NC(=O)[C@@H](NC(=O)[C@H](Cc1ccccc1)NC(=O)[C@@H](NC(=O)CNC(=O)[C@H](CCC(=O)O)NC(=O)CNC(=O)[C@@H](N)Cc1c[nH]cn1)[C@@H](C)O)[C@@H](C)O)C(C)C)C(=O)N[C@@H](CCC(=O)O)C(=O)N[C@@H](Cc1ccccc1)C(=O)N[C@@H](CC(C)C)C(=O)N[C@@H](CCCCN)C(=O)NCCOCCOCC(=O)N[C@@H](Cc1c[nH]c2ccccc12)C(=O)N[C@@H](CC(C)C)C(=O)N[C@@H](CC(=O)O)C(=O)N[C@@H](Cc1ccccc1)C(N)=O [Compound 97, [Glu9,Leu14,Phe25,Tyr13]Exendin-4(1-27)-Peg3-[Leu2]Gastrin4] (H-HGEGTFTSELSKYLEEEAVRLFIEFLK[AEEA]WLDF-NH2) | 0.06 | 13
3 | CC[C@H](C)[C@H](NC(=O)[C@H](Cc1ccccc1)NC(=O)[C@H](CC(C)C)NC(=O)[C@H](CCCNC(=N)N)NC(=O)[C@@H](NC(=O)[C@H](C)NC(=O)[C@H](CCC(=O)O)NC(=O)[C@H](CCC(=O)O)NC(=O)[C@H](CCC(=O)O)NC(=O)[C@H](CC(C)C)NC(=O)[C@H](Cc1ccc(O)cc1)NC(=O)[C@H](CCCNC(=N)N)NC(=O)[C@H](CO)NC(=O)[C@H](CC(C)C)NC(=O)[C@H](CC(=O)O)NC(=O)[C@H](CO)NC(=O)[C@@H](NC(=O)[C@H](Cc1ccccc1)NC(=O)[C@@H](NC(=O)CNC(=O)[C@H](CCC(=O)O)NC(=O)CNC(=O)[C@@H](N)Cc1c[nH]cn1)[C@@H](C)O)[C@@H](C)O)C(C)C)C(=O)N[C@@H](CCC(=O)O)C(=O)N[C@@H](Cc1ccccc1)C(=O)N[C@@H](CC(C)C)C(=O)N[C@@H](CCCCN)C(=O)NCCOCCOCC(=O)N[C@@H](Cc1ccc(O)cc1)C(=O)NCC(=O)N[C@@H](Cc1c[nH]c2ccccc12)C(=O)N[C@@H](CC(C)C)C(=O)N[C@@H](CC(=O)O)C(=O)N[C@@H](Cc1ccccc1)C(N)=O [Compound 95, [Arg12,Leu14,Phe25,Tyr13]Exendin-4(1-27)-Peg3-[Leu4]Gastrin6] (H-HGEGTFTSDLSRYLEEEAVRLFIEFLK[AEEA]YGWLDF-NH2) | 0.079 | 14
